# Test results published in US9066866B2, “Direct cellular energy delivery system” (University of Louisville Research Foundation, Inc., priority 2002, dated 2015).
# How the values were obtained:
# [1] = tested on: HUVEC; experiment: Vesicle absorption and release of 3H-ATP into HUVEC; format: cell-based, human
# Protocol: To determine if ATP is also introduced into cells like carboxyfluorescein, vesicle absorption and release of ATP into HUVEC was followed using the ^3H-ATP-containing vesicles of Example 2. The vesicles were incubated with HUVEC for 5, 10, 15, 30, 45, 60, 90, 120, or 240 minutes. The result shown in FIG. 1 is the partition coefficient of ATP inside the cells after 1 hour. […] When the cells were washed repeatedly there was a significant change in the radioactivity of the cells.
# [2] = tested on: amputated hind legs; experiment: Limb replantation after perfusion of amputated hind legs; format: in vivo, rats; details: rat
# Protocol: Hind legs were amputated from rats, and the major feed arteries for the severed limbs were cannulated for infusion of ATP-SUV, (1 mM ATP) solution. The limbs were perfused with ATP-SUV or control solutions (see Table 1) every 3 hours, or as deemed necessary by the change in tissue ATP levels. The arterial pressure of the limbs was monitored during infusion to decrease the chance of flow-induced injury, and to monitor the overall preservation of the severed limbs (higher perfusion pressures may indicate limb morbidity). Following the preservation period, the limbs were flushed with Ringers to remove traces of ATP-SUV. The limbs were then surgically reattached, and external indices of limb function after anastomoses were evaluated (limb color, evidence of microthrombi, coagulation, limb temperature). The animals prior to and following replantation received heparin to prevent hemostasis. In addition, animals were placed on antibiotic therapy to reduce infection. Control limbs were perfused with vehicle only, vehicle and ATP only, or vehicle and SUVs only.
smiles,measurement,setting,value
"Nc1ncnc2c1ncn2[C@@H]1O[C@H](COP(=O)(O)OP(=O)(O)OP(=O)(O)O)[C@@H](O)[C@H]1O [^3H-ATP only, adenosine-5′-triphosphate (ATP)]",change in radioactivity of the cells after repeated washes,[1]; 3H-ATP,complete loss of radioactivity
same,"partition coefficient of ATP inside the cells (percent incorporation, rank order)","[1]; after 1 hour, FIG. 1","then ^3H-ATP only, without vesicles"
same,mode of cell entry concluded,[1]; from wash and fusion data,does not enter cells
same,Limb outcome,[2],necrosis
